Assay results taken from patent US9617244B2, “Antibacterial quinoline derivatives” (JANSSEN PHARMACEUTICA NV, priority 2012, dated 2017).
≈ marks a conversion by molar mass, not a printed value.

tested on: Staphylococcus aureus (ATCC29213); test: In-vitro anti-bacterial activity, microtitre plate assay, IC90 determination (non-mycobacterial strains); format: cell-based; settings: 90% inhibitory concentration for bacterial growth, 24 hours, resazurin fluorescence
In short: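 Growth inhibition measured fluorometrically with resazurin (530/590 nm) after overnight 37 °C incubation under normal atmosphere. Bacteria added at roughly 100 TCID50 per well in Mueller-Hinton broth to five-fold compound dilution series; IC90 reported in μg/ml.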

IC90 STA B29213	Compound
1.77 µg/mL (≈ 3.38 µM)	CSc1ccc2[nH]c(=O)c(C(c3ccc(Cl)cc3)C3(O)CCNC(c4ccc(F)cc4C)C3)cc2c1 (stereo not shown) [Compound 278]
7.00 µg/mL (≈ 13.4 µM)	Cc1cc(F)ccc1C1CC(O)(C(c2ccccc2)c2cc3cc(Br)ccc3[nH]c2=O)CCN1 (stereo not shown) [Compound 279]
1.75 µg/mL (≈ 3.36 µM)	Cc1cc(F)ccc1C1CC(O)(C(c2ccccc2)c2cc3cc(Br)ccc3[nH]c2=O)CCN1 (stereo not shown) [Compound 280]
3.53 µg/mL (≈ 6.75 µM)	CSc1ccc2[nH]c(=O)c(C(c3ccc(Cl)cc3)C3(O)CCNC(Cc4ccc(F)cc4)C3)cc2c1 (stereo not shown) [Compound 281]
7.02 µg/mL (≈ 13.4 µM)	CSc1ccc2[nH]c(=O)c(C(c3ccc(Cl)cc3)C3(O)CCNC(Cc4ccc(F)cc4)C3)cc2c1 (stereo not shown) [Compound 282]
4.25 µg/mL (≈ 7.91 µM)	COc1nc2ccc(SC)cc2cc1C(c1ccc(Cl)cc1)C1(O)CCNCC1Cc1cccc(F)c1 (stereo not shown) [Compound 284]
>13.49 µg/mL	COc1nc2ccc(SC)cc2cc1C(c1ccc(Cl)cc1)C1(O)CCNCC1Cc1cccc(F)c1 (stereo not shown) [Compound 285]
4.22 µg/mL (≈ 7.86 µM)	COc1nc2ccc(SC)cc2cc1C(c1ccc(Cl)cc1)C1(O)CCNCC1Cc1cccc(F)c1 (stereo not shown) [Compound 286]
4.29 µg/mL (≈ 8.17 µM)	COc1nc2ccc(SC)cc2cc1C(c1ccc(Cl)cc1)C1(O)CCNC(CC2CCCCC2)C1 (stereo not shown) [Compound 288]
4.23 µg/mL (≈ 8.05 µM)	COc1nc2ccc(SC)cc2cc1C(c1ccc(Cl)cc1)C1(O)CCNC(CC2CCCCC2)C1 (stereo not shown) [Compound 289]
2.35 µg/mL (≈ 4.47 µM)	COc1nc2ccc(SC)cc2cc1C(c1ccc(Cl)cc1)C1(O)CCNC(CC2CCCCC2)C1 (stereo not shown) [Compound 290]
7.16 µg/mL (≈ 12.6 µM)	COc1nc2ccc(S(C)(=O)=O)cc2cc1C(c1ccc(Cl)cc1)C1(O)CCNCC1Cc1cccc(F)c1 (stereo not shown) [Compound 292]
7.16 µg/mL (≈ 12.6 µM)	COc1nc2ccc(S(C)(=O)=O)cc2cc1C(c1ccc(Cl)cc1)C1(O)CCNCC1Cc1cccc(F)c1 (stereo not shown) [Compound 293]
11.36 µg/mL (≈ 20 µM)	COc1nc2ccc(S(C)(=O)=O)cc2cc1C(c1ccc(Cl)cc1)C1(O)CCNCC1Cc1cccc(F)c1 (stereo not shown) [Compound 294]
3.43 µg/mL (≈ 6.71 µM)	CSc1ccc2[nH]c(=O)c(C(c3ccc(Cl)cc3)C3(O)CCNC(CC4CCCCC4)C3)cc2c1 (stereo not shown) [Compound 295]
3.43 µg/mL (≈ 6.71 µM)	CSc1ccc2[nH]c(=O)c(C(c3ccc(Cl)cc3)C3(O)CCNC(CC4CCCCC4)C3)cc2c1 (stereo not shown) [Compound 296]
3.43 µg/mL (≈ 6.71 µM)	CSc1ccc2[nH]c(=O)c(C(c3ccc(Cl)cc3)C3(O)CCNC(CC4CCCCC4)C3)cc2c1 (stereo not shown) [Compound 297]

same assay, conditions: Staphylococcus aureus, ATCC29213, 24 h, 90% inhibitory concentration for bacterial growth, resazurin fluorescence, read-out: IC90 STA B29213

IC90	Compound
> 13.9 µg/mL	Cc1cc(F)ccc1C1CC(O)(C(c2ccccc2)c2cc3cc(S(C)(=O)=O)ccc3[nH]c2=O)CCN1 (stereo not shown) [Compound 237]
3.6 µg/mL (≈ 6.62 µM)	O=c1[nH]c2ccc(Br)cc2cc1C(c1ccc(Cl)cc1)C1(O)CCNC(CC2CCCCC2)C1 (stereo not shown) [Compound 254]
2.5 µg/mL (≈ 4.78 µM)	CSc1ccc2[nH]c(=O)c(C(c3ccc(Cl)cc3)C3(O)CCNC(c4ccc(F)cc4C)C3)cc2c1 (stereo not shown) [Compound 266]

tested on: Mycobacterium smegmatis (ATCC607); test: In-vitro anti-bacterial activity against strain M. Smegmatis ATCC607; format: cell-based; settings: 90% inhibitory concentration for bacterial growth, 48 hours, Alamar Blue fluorescence
In short: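 IC90 (μg/ml) derived from Alamar Blue fluorescence (530/590 nm) after 48 h growth at 37 °C under 5% CO2. About 250 CFU per well in Mueller-Hinton broth faced five-fold serial compound dilutions in BSA-containing wells.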

IC90 MSM 607	Compound
11.06 µg/mL (≈ 21.2 µM)	Cc1cc(F)ccc1C1CC(O)(C(c2ccccc2)c2cc3cc(S(C)(=O)=O)ccc3[nH]c2=O)CCN1 (stereo not shown) [Compound 237]
3.60 µg/mL (≈ 6.62 µM)	O=c1[nH]c2ccc(Br)cc2cc1C(c1ccc(Cl)cc1)C1(O)CCNC(CC2CCCCC2)C1 (stereo not shown) [Compound 254]
1.40 µg/mL (≈ 2.68 µM)	CSc1ccc2[nH]c(=O)c(C(c3ccc(Cl)cc3)C3(O)CCNC(c4ccc(F)cc4C)C3)cc2c1 (stereo not shown) [Compound 278]
7.00 µg/mL (≈ 13.4 µM)	Cc1cc(F)ccc1C1CC(O)(C(c2ccccc2)c2cc3cc(Br)ccc3[nH]c2=O)CCN1 (stereo not shown) [Compound 279]
1.10 µg/mL (≈ 2.11 µM)	Cc1cc(F)ccc1C1CC(O)(C(c2ccccc2)c2cc3cc(Br)ccc3[nH]c2=O)CCN1 (stereo not shown) [Compound 280]
7.02 µg/mL (≈ 13.4 µM)	CSc1ccc2[nH]c(=O)c(C(c3ccc(Cl)cc3)C3(O)CCNC(Cc4ccc(F)cc4)C3)cc2c1 (stereo not shown) [Compound 282]
3.38 µg/mL (≈ 6.29 µM)	COc1nc2ccc(SC)cc2cc1C(c1ccc(Cl)cc1)C1(O)CCNCC1Cc1cccc(F)c1 (stereo not shown) [Compound 284]
>13.49 µg/mL	COc1nc2ccc(SC)cc2cc1C(c1ccc(Cl)cc1)C1(O)CCNCC1Cc1cccc(F)c1 (stereo not shown) [Compound 285]
2.12 µg/mL (≈ 3.95 µM)	COc1nc2ccc(SC)cc2cc1C(c1ccc(Cl)cc1)C1(O)CCNCC1Cc1cccc(F)c1 (stereo not shown) [Compound 286]
3.41 µg/mL (≈ 6.49 µM)	COc1nc2ccc(SC)cc2cc1C(c1ccc(Cl)cc1)C1(O)CCNC(CC2CCCCC2)C1 (stereo not shown) [Compound 288]
3.36 µg/mL (≈ 6.4 µM)	COc1nc2ccc(SC)cc2cc1C(c1ccc(Cl)cc1)C1(O)CCNC(CC2CCCCC2)C1 (stereo not shown) [Compound 289]
2.63 µg/mL (≈ 5.01 µM)	COc1nc2ccc(SC)cc2cc1C(c1ccc(Cl)cc1)C1(O)CCNC(CC2CCCCC2)C1 (stereo not shown) [Compound 290]
5.69 µg/mL (≈ 10 µM)	COc1nc2ccc(S(C)(=O)=O)cc2cc1C(c1ccc(Cl)cc1)C1(O)CCNCC1Cc1cccc(F)c1 (stereo not shown) [Compound 292]
7.16 µg/mL (≈ 12.6 µM)	COc1nc2ccc(S(C)(=O)=O)cc2cc1C(c1ccc(Cl)cc1)C1(O)CCNCC1Cc1cccc(F)c1 (stereo not shown) [Compound 293]
14.30 µg/mL (≈ 25.1 µM)	COc1nc2ccc(S(C)(=O)=O)cc2cc1C(c1ccc(Cl)cc1)C1(O)CCNCC1Cc1cccc(F)c1 (stereo not shown) [Compound 294]
3.43 µg/mL (≈ 6.71 µM)	CSc1ccc2[nH]c(=O)c(C(c3ccc(Cl)cc3)C3(O)CCNC(CC4CCCCC4)C3)cc2c1 (stereo not shown) [Compound 295]
6.85 µg/mL (≈ 13.4 µM)	CSc1ccc2[nH]c(=O)c(C(c3ccc(Cl)cc3)C3(O)CCNC(CC4CCCCC4)C3)cc2c1 (stereo not shown) [Compound 296]
13.65 µg/mL (≈ 26.7 µM)	CSc1ccc2[nH]c(=O)c(C(c3ccc(Cl)cc3)C3(O)CCNC(CC4CCCCC4)C3)cc2c1 (stereo not shown) [Compound 297]

same assay, conditions: Mycolicibacterium smegmatis, ATCC607, 48 h, 90% inhibitory concentration for bacterial growth, Alamar Blue fluorescence, read-out: IC90 MSM 607

IC90	Compound
2.22 µg/mL (≈ 4.24 µM)	CSc1ccc2[nH]c(=O)c(C(c3ccc(Cl)cc3)C3(O)CCNC(c4ccc(F)cc4C)C3)cc2c1 (stereo not shown) [Compound 266]
7.03 µg/mL (≈ 13.4 µM)	CSc1ccc2[nH]c(=O)c(C(c3ccc(Cl)cc3)C3(O)CCNC(Cc4ccc(F)cc4)C3)cc2c1 (stereo not shown) [Compound 281]
